Reference: patent EP1056700B1, “MEDICINAL USES OF PHENYLALKANOLS AND DERIVATES” (ZingoTX Pty Ltd, priority 1997, dated 1999)
Where “and” joins values, the source holds several entries; their conditions need not be identical. Equal entries are not always repeated. Each block holds one compound with its values, some of them ahead of it.

Legend:
rat mesenteric artery = assay: Vasodilation on rat mesenteric small arteries; conditions: relaxation of small arteries (200-300 µm) precontracted with endothelin
Text: Small arteries (200-300 µm in diameter) isolated from rat mesentery were precontracted with endothelin prior to addition of the test substances and tested for relaxation.

Lipoxygenase (LP) = target: T1, Lipoxygenase (LP) (Rattus norvegicus, UniProt P12527); assay: Lipoxygenase assay with cell-free enzyme from RBL 2H3 cells (EIA); format: biochemical; conditions: final concentration of 10 µM
T1 construct: cell-free enzyme (Wong et al, 1991) prepared from rat basophilic leukemia (RBL) 2H3 cell lines; endogenous in cells; host or cells: RBL 2H3 (rat basophilic leukemia), 15,000 g supernatant of cells disrupted by nitrogen cavitation
T1 sequence (P12527 1-673): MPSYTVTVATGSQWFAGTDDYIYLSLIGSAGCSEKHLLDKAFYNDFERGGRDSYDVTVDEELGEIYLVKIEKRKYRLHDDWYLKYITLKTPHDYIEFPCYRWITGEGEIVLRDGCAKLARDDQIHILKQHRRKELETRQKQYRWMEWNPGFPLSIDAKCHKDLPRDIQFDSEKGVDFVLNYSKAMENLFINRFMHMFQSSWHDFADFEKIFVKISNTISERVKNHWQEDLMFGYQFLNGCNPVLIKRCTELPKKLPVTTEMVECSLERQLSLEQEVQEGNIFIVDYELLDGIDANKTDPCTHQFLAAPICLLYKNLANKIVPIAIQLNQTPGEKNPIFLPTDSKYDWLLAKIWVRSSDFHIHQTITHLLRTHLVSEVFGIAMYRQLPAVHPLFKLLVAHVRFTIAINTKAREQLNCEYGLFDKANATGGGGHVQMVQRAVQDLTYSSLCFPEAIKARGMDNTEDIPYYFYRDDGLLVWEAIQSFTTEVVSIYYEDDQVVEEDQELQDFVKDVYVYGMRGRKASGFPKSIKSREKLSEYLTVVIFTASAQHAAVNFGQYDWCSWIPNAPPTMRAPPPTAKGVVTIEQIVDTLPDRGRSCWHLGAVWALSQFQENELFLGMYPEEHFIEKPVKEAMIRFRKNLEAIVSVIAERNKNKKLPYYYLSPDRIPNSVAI
Method: Lipoxygenase (LP) assay was performed with cell-free enzyme (Wong et al, 1991) prepared from rat basophilic leukemia (RBL) 2H3 cell lines. Cells were cultured in EMEM containing 10% fetal calf serum and antibiotic until cells reached confluence. Harvested cells were resuspended in Hepes (10 mM) buffer, pH 7.4, containing 1 mM EDTA at 1 x 10^7 cells/ml, and disrupted by nitrogen cavitation using a Parr bomb at 750 psi for 15 min. The broken cells were centrifuged at 15,000 g for 30 min. Aliquots (0.1 ml) of the supernatant were preincubated with or without drugs in Hepes buffer (10 mM Hepes, pH 7, 1 mM EDTA and 150 mM NaCl) for 5 min, and the reaction was initiated with the addition of 50 µl of CaCl2 (16 mM), 50 µl of ATP (2 mM), 5 µl of PAF (2.5 mg/ml) and 5 µl of AA (2.5 mM). The reaction mixture ([…]) was incubated at room temperature for a further 8 min, then diluted with EIA buffer at 1/200 and 1/2000 dilutions and stored on ice for EIA following the protocol provided with the kit.
Validation of LP enzyme activity was carried out by a UV spectrophotometric method in which the enzyme activity was characterised against various concentrations of Ca^2+, ATP, PAF and AA with the measurement of the formation of diene conjugated products of LP at 235 nm.
All compounds were dissolved in DMSO and assayed at a final concentration of 10 µM. NDGA was used as reference compound. The concentration of DMSO in the assay was maintained at 1.5%.

[1] = Brine shrimp toxicity bioassay; format: in vivo; conditions: Artemia salina (brine shrimp), in vivo; 24 hours, 2% DMSO
Text: (§1) The brine shrimp assay procedure determines LC50 values of active compounds. Activities of a broad range of known active compounds are manifested as toxicity to brine shrimp (Artemia salina Leach). There are many applications of the assay including analysis of toxic substances, anaesthetics, morphine-like substances and cocarcinogenicity of phorbol esters.
(§2) The method for testing solvent toxicity used was basically that reported by J L McLaughlin in Methods of Plant Biochemistry (1991), vol. 6 (K Hostettman, ed.), Academic Press, London, 1-32. DMSO solutions of the substances to be tested were added directly to the vials containing the brine shrimp. As the concentration of DMSO that we wished to use was higher than the recommended 1% v/v testing of the toxicity of the DMSO was therefore necessary. The concentrations of DMSO tested on the shrimp, along with the results from the assay which was done in duplicate are listed below.
(§3) Brine shrimp toxicity was assayed, except for some minor modifications, according to the method of McLaughlin et al as reported in Brine Shrimp: A convenient bioassay for active plant constituents, B N Meyer, N R Ferrigni, J E Putnam, L B Jacobsen, D E Nichols and J L McLaughlin in Planta Medica (1982), 45, 31-34 and Crown gall tumours on potato discs and brine shrimp lethality: Two simple bioassays for higher plant screening and fractionation. J L McLaughlin. Methods of Plant Biochemistry (1991), vol. 6 (K Hostettman, ed.), Academic Press, London, 1-32. Ten shrimp were transferred to each of the vials and the volume adjusted to 4.9 mL. Each dose was performed in triplicate, including the control. In quick succession, the appropriate volume of additional DMSO for each dose, required to achieve a final concentration of 2%, was added before the appropriate volume of test solution. The vials were gently mixed and the time noted. After 24 hours, the number of survivors were counted and % mortality was determined. The test compounds were assayed at concentrations of 100 µM, 25 µM, 5 µM, 1 µM and 0.2 µM (and where appropriate concentrations of 0.04 µM and 0.008 µM).
(§4) The brine shrimp were able to survive without food in the vials over the 24 hour period and were therefore not fed.
(§5) The dose-response curves were constructed using the Sigmaplot computer program and the LC50 value was calculated from the intersection point of the curve and the 50 % mortality line. The LC50 values were expressed in both µM and µg/mL.

guinea pig atria = assay: Organ bath assay on isolated guinea pig atria (rate and force of contraction); conditions: guinea pig atria
Method: Male guinea pigs, 3-4 weeks old, were killed by rapid cervical dislocation without induced anaesthesia. Then, the guinea pigs were dissected to isolate the atria which were immediately mounted vertically in an organ bath containing Krebs-Henseleit solution oxygenated with carbogen.
One gram tension was applied to the atria and the base line continuously adjusted until it was stable for 20 mins. The rate and force of contraction were recorded using Mac Lab equipment.
Test substances in DMSO were assayed to a maximum concentration of 50 µM at a final concentration of 2.5 % of DMSO.

SR Ca^2+-ATPase = target: T2, SR Ca^2+-ATPase (Canis lupus familiaris, UniProt O46674); assay: Sarcoplasmic reticulum Ca^2+-ATPase assay; format: biochemical, dog; conditions: for SR Ca^2+-ATPase Activity: 0 µM = 100, dog cardiac SR; for IC50: read-out: SR Ca^2+-ATPase IC50 = conc. for 50% inhibition
T2 construct: Effect of gingerols and their derivatives on the Ca^2+-ATPase activity of dog cardiac SR; from tissue; host or cells: dog heart (cardiac sarcoplasmic reticulum)
Method: A portion at each concentration (54 µl) was aliquoted into 4 designated wells of the microplate (two of four wells were controls). Each well was mixed with ATP solution (20 mM, 6 µl), except the controls, using an 8 channel pipette. The controls were assayed in the absence of ATP or calcium.
The plate was incubated with the lid on, for 30 min at 37°C, colour reagent (160 µl) was then added and mixed with citrate solution (34%, 30 µl). The plate was developed at room temperature for 30 min then absorbance at 655 nm was read from the microplate reader. The Ca^2+-ATPase activity was quantitated, from a Pi standard curve, as concentration of liberated inorganic phosphate.
Stock solutions (10 mM) of test substance were prepared in DMSO, then series dilutions were made either in DMSO or in 1M HEPES to produce the dose-response concentrations. The maximum concentration of DMSO in the final assay solution was 2.5%.
Each concentration of test substance was assayed in duplicate in the presence and absence of ATP or calcium. Phosphate standards are run on each plate as follows:
Effect of gingerols and their derivatives on the Ca^2+-ATPase activity of dog cardiac SR.

[2] = tested on: brine shrimp (Artemia salina Leach); assay: Brine shrimp toxicity bioassay; format: in vivo
Text: as §1, §2, §3, §4, §5

T2 sequence (O46674 whole entry): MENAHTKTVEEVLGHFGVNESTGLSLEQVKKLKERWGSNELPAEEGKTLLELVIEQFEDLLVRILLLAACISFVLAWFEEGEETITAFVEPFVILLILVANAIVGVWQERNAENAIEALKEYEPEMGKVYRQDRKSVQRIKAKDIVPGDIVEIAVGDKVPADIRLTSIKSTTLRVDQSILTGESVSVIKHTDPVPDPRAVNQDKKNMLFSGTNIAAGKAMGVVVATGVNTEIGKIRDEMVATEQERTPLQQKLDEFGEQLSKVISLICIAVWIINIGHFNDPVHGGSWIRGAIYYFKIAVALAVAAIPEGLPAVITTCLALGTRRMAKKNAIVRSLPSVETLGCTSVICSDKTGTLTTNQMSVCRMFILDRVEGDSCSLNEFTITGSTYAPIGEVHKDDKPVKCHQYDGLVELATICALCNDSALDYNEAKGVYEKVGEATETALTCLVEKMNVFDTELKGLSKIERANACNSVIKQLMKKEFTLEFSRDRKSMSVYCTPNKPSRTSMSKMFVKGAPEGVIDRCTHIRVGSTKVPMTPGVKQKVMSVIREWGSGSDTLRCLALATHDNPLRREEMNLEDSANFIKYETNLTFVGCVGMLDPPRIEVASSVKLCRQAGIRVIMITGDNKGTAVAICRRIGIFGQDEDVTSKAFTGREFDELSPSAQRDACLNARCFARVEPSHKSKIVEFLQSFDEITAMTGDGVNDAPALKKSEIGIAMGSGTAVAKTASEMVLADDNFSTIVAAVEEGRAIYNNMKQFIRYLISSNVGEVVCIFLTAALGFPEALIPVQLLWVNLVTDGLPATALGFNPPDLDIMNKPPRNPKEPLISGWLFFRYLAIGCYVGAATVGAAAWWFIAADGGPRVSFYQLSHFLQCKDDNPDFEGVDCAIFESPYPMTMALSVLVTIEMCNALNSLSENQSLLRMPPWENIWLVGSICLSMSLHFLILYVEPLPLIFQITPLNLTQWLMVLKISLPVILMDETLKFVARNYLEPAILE

Compound: CCCCCCCCCC(O)CCc1ccc(O)c(OC)c1 (single isomer, unassigned) [enantiomer-2, 1-(4-hydroxy-3-methoxyphenyl)dodecan-3-ol]
EC50 (rat mesenteric artery; Rattus norvegicus): 320 nM

Compound: CCCCCCCCCC(O)CCc1ccc(O)c(OC)c1 (single isomer, unassigned; enantiomer-1) [enantiomer-1, enantiomer-1 of 1-(4-hydroxy-3-methoxyphenyl)dodecan-3-ol]
EC50 (rat mesenteric artery): 500 nM

activity at 10 µM (Lipoxygenase (LP)): 2%
Compound: CCCCCCCC=CC(=O)C=Cc1ccc(O)c(OC)c1 [1-(4-hydroxy-3-methoxyphenyl)dodecane-1,4-diene-3-one]
LC50 at 24 h [1]: 5.4 µM and 1.6 µg/mL

SR Ca^2+-ATPase Activity (SR Ca^2+-ATPase; 1 µM): 122 | SR Ca^2+-ATPase Activity (SR Ca^2+-ATPase; 5 µM): 111 | SR Ca^2+-ATPase Activity (SR Ca^2+-ATPase; 10 µM): 133 | SR Ca^2+-ATPase Activity (SR Ca^2+-ATPase; 25 µM): 147 | SR Ca^2+-ATPase Activity (SR Ca^2+-ATPase; 50 µM): 158 | SR Ca^2+-ATPase Activity (SR Ca^2+-ATPase; 100 µM): 149 | SR Ca^2+-ATPase ↑ increase or stimulation (SR Ca^2+-ATPase; @ 10 µM): ↑60% @ 10 | IC50 (SR Ca^2+-ATPase): 50000 nM
Compound: CCCCCCCCCC(O)CC(=O)c1ccc(O)c(OC)c1 (stereo not shown) [3-hydroxy-1-(4-hydroxy-3-methoxyphenyl)dodecan-1-one]
FORCE OF CONTRACT^n ↑ increase (guinea pig atria; @ 30 (µM)): ↑11% @ 30 | LC50 at 24 h [1]: 10 µM and 3.2 µg/mL

Compound: CCCCCCCC(O)CC(=O)C=Cc1ccc(O)cc1 (stereo not shown) [5-hydroxy-1-(4-hydroxyphenyl)dodecan-1-ene-3-one]
LC50 at 24 h [1]: 2.6 µM and 0.75 µg/mL

Compound: C[S+](C)[O-] [DMSO, dimethyl sulfoxide]
% Deaths ([2]; Conc 1 % v/v): 0% | % Deaths ([2]; Conc 2 % v/v): 0% | % Deaths ([2]; Conc 3 % v/v): 0% | % Deaths ([2]; Conc 4 % v/v): 0% | % Deaths ([2]; Conc 5 % v/v): 9% | % Deaths ([2]; Conc 7 % v/v): 12% | % Deaths ([2]; Conc 9 % v/v): 18% | % Deaths ([2]; Conc 11 % v/v): 57% | % Deaths ([2]; Conc 13 % v/v): 96% | % Deaths ([2]; Conc 15 % v/v): 100% | % Deaths ([2]; Conc 20 % v/v): 100% | % Deaths ([2]; Conc 25 % v/v): 100%

IC50 (SR Ca^2+-ATPase): > 100000 nM
Compound: CCCCCC(O)CC(=O)CCc1ccc(O)cc1 (stereo not shown) [[6]-demethoxygingerol, 5-hydroxy-1-(4-hydroxyphenyl)decan-3-one]
FORCE OF CONTRACT^n (guinea pig atria; result in words): inactive | HEART RATE (guinea pig atria; result in words): inactive | LC50 at 24 h [1]: > 100 µM and > 26 µg/mL
